{
  "source": "paper PMC11546340",
  "about": "(BMC Chemistry, 2024)",
  "key": {"human plasma": {"system": "human plasma", "assay": "Plasma protein binding, HT Dialysis 96-well apparatus, LC-MS/MS", "assay_type": "in vitro ADME", "conditions": "3 µM"}, "[1]": {"assay": "Plasma protein binding, HT Dialysis 96-well apparatus, LC-MS/MS", "assay_type": "in vitro ADME", "conditions": "male, human, plasma, pH 7.4, Recovery (%), mean, n = 4"}},
  "note": "Where “and” joins values, the source holds several entries; their conditions need not be identical. Equal values may be shown once.",
  "data": [
    {"smiles": "O=C(O)Cc1ccccc1Nc1c(Cl)cccc1Cl", "note": "[Diclofenac]", "values": [
      {"measurement": "Bound (%)", "setting": "human plasma; individual replicates 1-4", "value": "99.01% and 99.07% and 98.91% and 98.99%"},
      {"measurement": "Recovery (%)", "setting": "human plasma; individual replicates 1-4", "value": "80.60% and 94.07% and 119.11% and 83.10%"},
      {"measurement": "Unbound (%)", "setting": "human plasma; individual replicates 1-4", "value": "0.99% and 0.93% and 1.09% and 1.01%"},
      {"measurement": "Unbound (%)", "setting": "human plasma; mean, n = 4", "value": 1.01, "unit": "%"},
      {"measurement": "recovery at 5 h, 3 µM", "setting": "[1]", "value": 94.2, "unit": "%"}
    ]}
  ]
}
